# Source: patent US20220324808A1, “Co-crystal of Compound I Dihydrochloride and Preparation Method and Use Thereof” (CRYSTAL PHARMACEUTICAL (SUZHOU) CO., LTD., priority 2020, published 2022)
# Read-outs that look alike come from different tables or passages of the source.
# Key:
# [1] = heated to 75-100° C.; WO2014152270A1; cited from earlier work
# [2] = Mechanical stability: manual grinding, XRPD before and after; assay type: physicochemical; conditions: ground manually for 5 minutes in mortar
# Experimental: Solid sample of prior art Form A, Form CSI and Form CSIII of the present disclosure were separately grounded manually for 5 minutes in mortars. The XRPD patterns overlay before and after grinding is shown in FIG. 14, FIG. 15 and FIG. 16.
# [3] = Compressibility (manual tablet press, tensile strength); assay type: physicochemical; conditions: 10 KN
# Experimental: A manual tablet press was used for compression. 60 mg of Form CSIII and prior art Form A were weighed and added into the dies of a φ6 mm round tooling, compressed at 10 KN manually, then stored at room temperature for 24 h until complete elastic recovery, diameter (D) and thickness (L) were tested with a caliper. Hardness (H) was tested with an intelligent tablet hardness tester. Tensile strength of the powder was calculated with the following formula: T=2H/πDL. Under a certain force, the greater the tensile strength, the better the compressibility.
# [4] = cited from earlier work; for crystalline form conversion at low humidity: under 5% RH
# [5] = Adhesiveness (material sticking to the punch); assay type: physicochemical; conditions: 30 mg, φ8 mm round tooling, 10 KN; for Maximum amount (mg) of material sticking to the punch: held 30 s
# Experimental: 30 mg of Form CSI, Form CSIII and prior art Form A were weighed and then added into the dies of φ8 mm round tooling, compressed at 10 KN and held for 30 s. The punch was weighed and the amount of material sticking to the punch was calculated. The compression was repeated twice and the maximum amount of material sticking to the punch during the compression were recorded.
# [6] = Mechanical stability: tableting under different pressure, XRPD; assay type: physicochemical; conditions: 5 kN, 10 kN, 20 kN pressure
# From the text: A certain amount of Form CSI and Form CSIII were compressed into tablets under 5 kN, 10 kN, 20 kN pressure with suitable tableting die. Crystalline form before and after tableting were checked by XRPD.
# [7] = Crystalline form before and after formulation process (XRPD); assay type: physicochemical; conditions: dry granulation and tableting
# From the text: The formulation and preparation process of Form CSI and Form CSIII are shown in Table 16 and Table 17, respectively.
# [8] = Storage stability of drug substance (crystalline form by XRPD, chemical impurity by HPLC); assay type: physicochemical
# From the text: (§1) Crystalline form and chemical impurity were checked by XRPD and HPLC, respectively.
# as §1
# [9] = Humidity stability by DVS; assay type: physicochemical; conditions: humidity range 0-95% RH, XRPD before and after
# Experimental: Dynamic Vapor Sorption (DVS) was measured via an SMS (Surface Measurement Systems Ltd.) intrinsic DVS instrument. Typical Parameters for DVS test are as follows:
# Gas and flow rate: nitrogen, 200 mL/min
# Rate of mass change: 0.002%/min
# RH range: 0% RH to 95% RH
# DVS was applied to test the stability of Form CSI under different humidity with about 10 mg of samples. The weight change at each relative humidity were recorded in a humidity range of 0-95% RH.
# DVS was applied to test the stability of Form CSIII under different humidity with about 10 mg of samples. The weight change at each relative humidity were recorded in a humidity range of 0-95% RH.
# [10] = 60 mg, φ6 mm round tooling, after 24 h
# [11] = 25° C./60% RH (sealed), 6 Months
# [12] = 40° C./75% RH (sealed), 6 Months
# [13] = 60° C./75% RH (sealed), 1 Month
smiles,measurement,setting,value
COC(=O)N1CCN(Cc2cccc(NC(=O)Nc3ccc(C)nc3)c2F)CC1.Cl.Cl.O [Form A],crystalline form conversion on heating,[1],converts to Form B
same,crystal form and crystallinity after grinding,[2],crystallinity of prior art Form A decreases after grinding
same,Diameter (mm),[3]; [10],6.00 mm
same,Hardness (kgf),[3]; [10],3.38 kgf
same,Thickness (mm),[3]; [10],1.67 mm
same,Tensile strength (MPa),[3]; T=2H/πDL,2.11 MPa
same,weight loss,"[4]; DVS, between about 30% RH and about 5% RH, WO2014152270A1",about 2.7 wt %
same,total weight gain,"[4]; DVS, between about 40% RH and about 95% RH, WO2014152270A1",about 0.55 wt %
same,crystalline form conversion at low humidity,[4],converted to dehydrated state Form C
same,crystalline form conversion at low humidity,[4]; listed as prior art Form A,converted to Form C
same,Maximum amount (mg) of material sticking to the punch,[5],2.83 mg
COC(=O)N1CCN(Cc2cccc(NC(=O)Nc3ccc(C)nc3)c2F)CC1.COC(=O)N1CCN(Cc2cccc(NC(=O)Nc3ccc(C)nc3)c2F)CC1.Cl.Cl.Cl.Cl.O=C(O)/C=C/C(=O)O [Form CSI],crystalline form after tableting,[6],no crystal transformation after tableting under different pressure
same,crystal form and crystallinity after grinding,[2],no crystal transformation and the crystallinity almost has no change after grinding
same,crystalline form before and after the formulation process,[7],remain stable before and after the formulation process
same,Purity (%),"[8]; 25° C./60% RH (open), 6 Months",99.66%
same,Solid Form,"[8]; 25° C./60% RH (open), 6 Months",Form CSI
same,Purity (%),[8]; [11],99.65%
same,Solid Form,[8]; [11],Form CSI
same,storage stability (in words),[8]; 25° C./60% RH and 40° C./75% RH,stable for at least six months
same,Purity (%),"[8]; 40° C./75% RH (open), 6 Months",99.65%
same,Solid Form,"[8]; 40° C./75% RH (open), 6 Months",Form CSI
same,Purity (%),[8]; [12],99.64%
same,Solid Form,[8]; [12],Form CSI
same,storage stability (in words),[8]; 60° C./75% RH,stable for at least one month
same,Purity (%),[8]; [13],99.70%
same,Solid Form,[8]; [13],Form CSI
same,Purity (%),[8]; Initial,99.71%
same,Solid Form,[8]; Initial,Form CSI
same,maximum amount relative to that of the prior art Form A,[5],less than ⅕
same,Maximum amount (mg) of material sticking to the punch,[5],0.48 mg
same,crystalline state after DVS test,[9],remains unchanged
